The target in experiment [1] is T1, adrenergic β receptors (β2) (Canis lupus familiaris, UniProt P54833).
T1 construct: from tissue; host or cells: whole anaesthetized dog (in vivo, systemic arterial pressure)
Briefly: Antagonism of the effects of isoprenaline: hypertension (so in the source) (β2), anaesthetized dog, intravenous. The experiment is classed as in vivo. Particulars: 50% inhibition of hypertension (β2) induced by intravenous isoprenaline, i.v., read-out: ID 50 isoprenaline β2. The method, then:
(§1) The dog is anaesthetized with sodium pentobarbital administered intravenously at the dose of 30 mg/kg. A canula placed in the short saphenous vein allows the products to be injected intravenously. The animal is intubed and breathes spontaneously.
(§2) The cardiac frequency and the systemic arterial pressure are studied and the variations of these parameters are observed after intravenous injection of the product to be tested, each product being injected at increasing doses.
(§3) The antagonism of the products vis-a-vis the β stimulant cardiovascular effects of isoprenaline on the adrenergic β receptors was sought. The results are shown in Table below and expressed in ID 50: this is the dose expressed in mg/kg which provokes 50% inhibition of tachycardia (β1) and of hypertension (β2) induced by the isoprenaline administered by intravenous route.

In experiment [2] the target is T2, adrenergic β receptors (β1) (Canis lupus familiaris, UniProt P79148).
T2 construct: The dog is anaesthetized with sodium pentobarbital; from tissue; host or cells: whole anaesthetized dog (in vivo, heart rate)
The experiment can be described thus: Antagonism of the effects of isoprenaline: tachycardia (β1), anaesthetized dog, intravenous. Particulars: 50% inhibition of tachycardia (β1) induced by intravenous isoprenaline, i.v., read-out: ID 50 isoprenaline β1. In kind it is in vivo. The method, then: as §1, §2, §3

T1 sequence (P54833 whole entry): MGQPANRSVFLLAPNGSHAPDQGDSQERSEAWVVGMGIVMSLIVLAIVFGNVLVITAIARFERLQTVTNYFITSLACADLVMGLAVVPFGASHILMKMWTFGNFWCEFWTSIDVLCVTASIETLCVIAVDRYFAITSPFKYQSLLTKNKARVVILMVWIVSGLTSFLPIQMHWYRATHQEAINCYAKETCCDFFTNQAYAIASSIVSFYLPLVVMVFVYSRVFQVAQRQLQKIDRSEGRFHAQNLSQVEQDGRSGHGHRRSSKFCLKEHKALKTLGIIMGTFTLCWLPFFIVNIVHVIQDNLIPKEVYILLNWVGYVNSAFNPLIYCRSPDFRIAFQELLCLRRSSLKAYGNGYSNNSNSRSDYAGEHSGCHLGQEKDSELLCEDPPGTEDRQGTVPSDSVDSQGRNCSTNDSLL
T2 sequence (P79148 whole entry): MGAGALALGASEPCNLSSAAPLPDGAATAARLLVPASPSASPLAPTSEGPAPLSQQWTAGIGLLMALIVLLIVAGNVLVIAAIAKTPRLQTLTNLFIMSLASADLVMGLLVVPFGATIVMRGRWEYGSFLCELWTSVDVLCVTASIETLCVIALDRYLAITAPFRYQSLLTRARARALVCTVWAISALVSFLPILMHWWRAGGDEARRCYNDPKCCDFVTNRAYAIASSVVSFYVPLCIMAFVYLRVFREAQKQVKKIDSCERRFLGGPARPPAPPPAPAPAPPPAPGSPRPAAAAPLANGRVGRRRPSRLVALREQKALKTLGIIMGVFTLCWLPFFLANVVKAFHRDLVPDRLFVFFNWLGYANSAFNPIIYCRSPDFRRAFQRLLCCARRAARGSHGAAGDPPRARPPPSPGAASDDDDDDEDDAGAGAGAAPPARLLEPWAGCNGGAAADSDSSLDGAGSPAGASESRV

With `CC(C)(C)NCC(O)COc1cccc2c1C(=O)CCC2` (centres unmarked) [compound 7285, 1-(8-oxo 5,6,7,8-tetrahydro 1-naphthyloxy) 2-hydroxy 3-tertiobutylamino propane], in experiment [1], the ED50 is 0.03 mg/kg.
As to `Cc1ccc(OCC(O)CNC(C)(C)C)c2c1CCCC2=O` (centres unmarked) [compound 7706], the ED50 came to 0.01 mg/kg in experiment [1] and 0.1 mg/kg in experiment [2].
For `C#CC(C)(C)NCC(O)COc1ccc(C)c2c1C(=O)CCC2` (centres unmarked) [compound 7760], the ED50 in experiment [1] stood at 0.03 mg/kg; in experiment [2], 0.1 mg/kg.
